According to patent US9050344B2, “Therapeutic compounds” (Gilead Sciences, Inc., priority 2013, dated 2015):

What was measured:
[1] = Test B: Cytotoxicity Assay (protocol of Test A, uninfected cells); assay type: cell-based; conditions: human, uninfected MT-4 cells, CellTiter-Glo
Description: Test B: Cytotoxicity Assay Compound cytotoxicity and the corresponding CC50 values was determined using the same protocol as described in the antiviral assay (Test A) except that uninfected cells were used.

HIV-IIIb = assay: Test A: Antiviral Assay in MT4 Cells; assay type: cell-based, HIV-1; conditions: Human immunodeficiency virus 1, IIIB, MT4, 120 h, read-out: % inhibition at 3 μM
Description: Test A: Antiviral Assay in MT4 Cells
For the antiviral assay, 40 μL of 1× test concentration of 3-fold serially diluted compound in culture medium with 10% FBS was added to each well of a 384-well plate (10 concentrations) in quadruplicate. MT-4 cells were next mixed with HIV-IIIb at an m.o.i of 0.003 for 1 hour, after which time 35 μL of virus/cell mixture (2000 cells) was immediately added to each well containing 40 μL of diluted compound. The plates were then incubated at 37° C. for 5 days. After 5 days of incubation, 25 μl of 2× concentrated CellTiter-Glo™ Reagent (catalog #G7571, Promega Biosciences, Inc., Madison, Wis.) was added to each well containing MT-4 cells. Cell lysis was carried out by incubating at room temperature for 10 min and then chemiluminescence was read.

For `NC(=O)c1cc(-c2cc(N3C(=O)c4ccccc4C3=O)cnc2[C@H](Cc2cc(F)cc(F)c2)NC(=O)Cn2nc(C(F)(F)F)c3c2C(F)(F)[C@@H]2C[C@H]32)ccc1F` [Compound 30K, 5-(2-((S)-1-(2-((3bS,4aR)-5,5-difluoro-3-(trifluoromethyl)-3b,4,4a,5-tetrahydro-1H-cyclopropa[3,4]cyclopenta[1,2-c]pyrazol-1-yl)acetamido)-2-(3,5-difluorophenyl)ethyl)-5-(1,3-dioxoisoindolin-2-yl)pyridin-3-yl)-2-fluorobenzamide], which CC50 at 5 days [1] is on record?
The CC50 at 5 days was greater than 53.2 µM.

What about the inhibition at 3 µM (HIV-IIIb) of the same compound?
Its inhibition at 3 µM is 48%.

Which results are given for `NC(=O)c1cc(-c2cc(N)cnc2[C@H](Cc2cc(F)cc(F)c2)NC(=O)Cn2nc(C(F)(F)F)c3c2C(F)(F)[C@@H]2C[C@H]32)ccc1F` [Compound 31, 5-(5-amino-2-((S)-1-(2-((3bS,4aR)-5,5-difluoro-3-(trifluoromethyl)-3b,4,4a,5-tetrahydro-1H-cyclopropa[3,4]cyclopenta[1,2-c]pyrazol-1-yl)acetamido)-2-(3,5-difluorophenyl)ethyl)pyridin-3-yl)-2-fluorobenzamide]?
CC50 at 5 days [1]: 19.5 µM; inhibition at 3 µM (HIV-IIIb): 96%

Which results are given for `NC(=O)c1cc(-c2cc(N3C(=O)c4ccccc4C3=O)cnc2[C@H](Cc2cc(F)cc(F)c2)NC(=O)Cn2nc(C(F)F)c3c2C(F)(F)CCC3(F)F)ccc1F` [Compound 32, (S)-5-(2-(1-(2-(3-(difluoromethyl)-4,4,7,7-tetrafluoro-4,5,6,7-tetrahydro-1H-indazol-1-yl)acetamido)-2-(3,5-difluorophenyl)ethyl)-5-(1,3-dioxoisoindolin-2-yl)pyridin-3-yl)-2-fluorobenzamide]?
CC50 at 5 days [1]: > 53.2 µM; inhibition at 3 µM (HIV-IIIb): 37%

Which CC50 at 5 days [1] does the source give for `NC(=O)c1cc(-c2cc(N)cnc2[C@H](Cc2cc(F)cc(F)c2)NC(=O)Cn2nc(C(F)F)c3c2C(F)(F)CCC3(F)F)ccc1F` [Compound 33, (S)-5-(5-amino-2-(1-(2-(3-(difluoromethyl)-4,4,7,7-tetrafluoro-4,5,6,7-tetrahydro-1H-indazol-1-yl)acetamido)-2-(3,5-difluorophenyl)ethyl)pyridin-3-yl)-2-fluorobenzamide] here?
Its CC50 at 5 days is 13.3 µM.

What about the inhibition at 3 µM (HIV-IIIb) of the same compound?
Its inhibition at 3 µM is 85%.

With `Cc1c(-c2cc(N)cnc2[C@H](Cc2cc(F)cc(F)c2)NC(=O)Cn2nc(C(F)(F)F)c3c2C(F)(F)[C@@H]2C[C@H]32)ccc2n[nH]c(=O)n12` [Compound 34, N—((S)-1-(5-amino-3-(5-methyl-3-oxo-2,3-dihydro-[1,2,4]triazolo[4,3-a]pyridin-6-yl)pyridin-2-yl)-2-(3,5-difluorophenyl)ethyl)-2-((3bS,4aR)-5,5-difluoro-3-(trifluoromethyl)-3b,4,4a,5-tetrahydro-1H-cyclopropa[3,4]cyclopenta[1,2-c]pyrazol-1-yl)acetamide] as the compound, how does the CC50 at 5 days [1] read?
The CC50 at 5 days was 22.4 µM.

What about the inhibition at 3 µM (HIV-IIIb) of the same compound?
Its inhibition at 3 µM is 89%.

Which results are given for `Cn1nc(NS(C)(=O)=O)c2cccc(-c3cc(N)cnc3[C@H](Cc3cc(F)cc(F)c3)NC(=O)Cn3nc(C(F)(F)F)c4c3C(F)(F)[C@@H]3C[C@H]43)c21` [Compound 35, N—((S)-1-(5-amino-3-(1-methyl-3-(methylsulfonamido)-1H-indazol-7-yl)pyridin-2-yl)-2-(3,5-difluorophenyl)ethyl)-2-((3bS,4aR)-5,5-difluoro-3-(trifluoromethyl)-3b,4,4a,5-tetrahydro-1H-cyclopropa[3,4]cyclopenta[1,2-c]pyrazol-1-yl)acetamide]?
CC50 at 5 days [1]: 23.9 µM; inhibition at 3 µM (HIV-IIIb): 93%

With `Cn1nc(NS(C)(=O)=O)c2cccc(-c3cnc(N4CC(C)(O)C4)nc3[C@H](Cc3cc(F)cc(F)c3)NC(=O)Cn3nc(C(F)(F)F)c4c3C(F)(F)[C@@H]3C[C@H]43)c21` [Compound 36C, 2-((3bS,4aR)-5,5-difluoro-3-(trifluoromethyl)-3b,4,4a,5-tetrahydro-1H-cyclopropa[3,4]cyclopenta[1,2-c]pyrazol-1-yl)-N—((S)-2-(3,5-difluorophenyl)-1-(2-(3-hydroxy-3-methylazetidin-1-yl)-5-(1-methyl-3-(methylsulfonamido)-1H-indazol-7-yl)pyrimidin-4-yl)ethyl)acetamide] as the compound, how does the CC50 at 5 days [1] read?
The CC50 at 5 days was 32.2 µM.

And the inhibition at 3 µM (HIV-IIIb)?
The inhibition at 3 µM was 94%.

Which CC50 at 5 days [1] does the source give for `Cn1nc(NS(C)(=O)=O)c2cccc(-c3cnc(N4CC5(COC5)C4)nc3[C@H](Cc3cc(F)cc(F)c3)NC(=O)Cn3nc(C(F)(F)F)c4c3C(F)(F)[C@@H]3C[C@H]43)c21` [Compound 37, 2-((3bS,4aR)-5,5-difluoro-3-(trifluoromethyl)-3b,4,4a,5-tetrahydro-1H-cyclopropa[3,4]cyclopenta[1,2-c]pyrazol-1-yl)-N—((S)-2-(3,5-difluorophenyl)-1-(5-(1-methyl-3-(methylsulfonamido)-1H-indazol-7-yl)-2-(2-oxa-6-azaspiro[3.3]heptan-6-yl)pyrimidin-4-yl)ethyl)acetamide] here?
Its CC50 at 5 days is 34 µM.

What about the inhibition at 3 µM (HIV-IIIb) of the same compound?
The inhibition at 3 µM was 95%.

With `CC(=O)Nc1cnc([C@H](Cc2cc(F)cc(F)c2)NC(=O)Cn2nc(C(F)(F)F)c3c2C(F)(F)[C@@H]2C[C@H]32)c(-c2cccc3c(N(C(C)=O)S(C)(=O)=O)nn(C)c23)c1` [Compound 38B] as the compound, how does the CC50 at 5 days [1] read?
The CC50 at 5 days was 40.8 µM.

What about the inhibition at 3 µM (HIV-IIIb) of the same compound?
Its inhibition at 3 µM is 98%.

With `CC(=O)Nc1cnc([C@H](Cc2cc(F)cc(F)c2)NC(=O)Cn2nc(C(F)(F)F)c3c2C(F)(F)[C@@H]2C[C@H]32)c(-c2cccc3c(NS(C)(=O)=O)nn(C)c23)c1` [Compound 39, N—((S)-1-(5-acetamido-3-(1-methyl-3-(methylsulfonamido)-1H-indazol-7-yl)pyridin-2-yl)-2-(3,5-difluorophenyl)ethyl)-2-((3bS,4aR)-5,5-difluoro-3-(trifluoromethyl)-3b,4,4a,5-tetrahydro-1H-cyclopropa[3,4]cyclopenta[1,2-c]pyrazol-1-yl)acetamide] as the compound, how does the CC50 at 5 days [1] read?
The CC50 at 5 days was 29.6 µM.

And the inhibition at 3 µM (HIV-IIIb)?
The inhibition at 3 µM was 92%.

Which results are given for `Cc1c(-c2cc(NC(=O)C(F)(F)F)cnc2[C@H](Cc2cc(F)cc(F)c2)NC(=O)Cn2nc(C(F)(F)F)c3c2C(F)(F)[C@@H]2C[C@H]32)ccc2n[nH]c(=O)n12` [Compound 40, N-(6-((S)-1-(2-((3bS,4aR)-5,5-difluoro-3-(trifluoromethyl)-3b,4,4a,5-tetrahydro-1H-cyclopropa[3,4]cyclopenta[1,2-c]pyrazol-1-yl)acetamido)-2-(3,5-difluorophenyl)ethyl)-5-(5-methyl-3-oxo-2,3-dihydro-[1,2,4]triazolo[4,3-a]pyridin-6-yl)pyridin-3-yl)-2,2,2-trifluoroacetamide]?
CC50 at 5 days [1]: 24.1 µM; inhibition at 3 µM (HIV-IIIb): 96%

Which results are given for `Cc1c(-c2cc(NS(C)(=O)=O)cnc2[C@H](Cc2cc(F)cc(F)c2)NC(=O)Cn2nc(C(F)(F)F)c3c2C(F)(F)[C@@H]2C[C@H]32)ccc2n[nH]c(=O)n12` [Compound 41E, 2-((3bS,4aR)-5,5-difluoro-3-(trifluoromethyl)-3b,4,4a,5-tetrahydro-1H-cyclopropa[3,4]cyclopenta[1,2-c]pyrazol-1-yl)-N—((S)-2-(3,5-difluorophenyl)-1-(3-(5-methyl-3-oxo-2,3-dihydro-[1,2,4]triazolo[4,3-a]pyridin-6-yl)-5-(methylsulfonamido)pyridin-2-yl)ethyl)acetamide]?
CC50 at 5 days [1]: > 50 µM; inhibition at 3 µM (HIV-IIIb): 91%

With `Cn1nc(NS(C)(=O)=O)c2cccc(-c3ccc(N4CC(C)(O)C4)nc3[C@H](Cc3cc(F)cc(F)c3)NC(=O)Cn3nc(C(F)F)c4c3C(F)(F)[C@@H]3C[C@H]43)c21` [Compound 42K, 2-((3bS,4aR)-3-(difluoromethyl)-5,5-difluoro-3b,4,4a,5-tetrahydro-1H-cyclopropa[3,4]cyclopenta[1,2-c]pyrazol-1-yl)-N—((S)-2-(3,5-difluorophenyl)-1-(6-(3-hydroxy-3-methylazetidin-1-yl)-3-(1-methyl-3-(methylsulfonamido)-1H-indazol-7-yl)pyridin-2-yl)ethyl)acetamide] as the compound, how does the CC50 at 5 days [1] read?
Its CC50 at 5 days is 18.9 µM.

And the inhibition at 3 µM (HIV-IIIb)?
The inhibition at 3 µM was 92%.

With `Cn1nc(NS(C)(=O)=O)c2cccc(-c3ccc(N4CC(N)CC4=O)nc3[C@H](Cc3cc(F)cc(F)c3)NC(=O)Cn3nc(C(F)(F)F)c4c3C(F)(F)[C@@H]3C[C@H]43)c21` (stereo partly drawn) [Compound 43B, N-((1S)-1-(6-(4-amino-2-oxopyrrolidin-1-yl)-3-(1-methyl-3-(methylsulfonamido)-1H-indazol-7-yl)pyridin-2-yl)-2-(3,5-difluorophenyl)ethyl)-2-((3bS,4aR)-5,5-difluoro-3-(trifluoromethyl)-3b,4,4a,5-tetrahydro-1H-cyclopropa[3,4]cyclopenta[1,2-c]pyrazol-1-yl)acetamide] as the compound, how does the CC50 at 5 days [1] read?
The CC50 at 5 days was 16.9 µM.

What about the inhibition at 3 µM (HIV-IIIb) of the same compound?
The inhibition at 3 µM was 83%.

Which CC50 at 5 days [1] does the source give for `Cc1nc([C@H](Cc2cc(F)cc(F)c2)NC(=O)Cn2nc(C(F)F)c3c2C(F)(F)[C@@H]2C[C@H]32)c(-c2cccc3c(NS(C)(=O)=O)nn(C)c23)cc1N` [Compound 44, N—((S)-1-(5-amino-6-methyl-3-(1-methyl-3-(methylsulfonamido)-1H-indazol-7-yl)pyridin-2-yl)-2-(3,5-difluorophenyl)ethyl)-2-((3bS,4aR)-3-(difluoromethyl)-5,5-difluoro-3b,4,4a,5-tetrahydro-1H-cyclopropa[3,4]cyclopenta[1,2-c]pyrazol-1-yl)acetamide] here?
The CC50 at 5 days was 32 µM.

What about the inhibition at 3 µM (HIV-IIIb) of the same compound?
The inhibition at 3 µM was 107%.
